This passage reports IC50 and Kd results from patent publication US11053219B2, “Substituted pyridines as TYK2 inhibitors” (FronThera U.S. Pharmaceuticals LLC, priority 2018, dated 2021).

pIC50, pKd: −log10 of the molar value. Where two headings read alike, the source gives them in different places.

Assay [1] has as its system IL12-induced p-STAT4 in human PBMC. As to the kind of experiment: IL-12 induced pSTAT4 in human PBMC. Format: cell-based. The settings on record: read-out: p-STAT4 IC50.
Assay [2] concerns the target TYK2 (JH2 domain) (Homo sapiens (Human), UniProt P29597). As to the kind of experiment: TYK2 JH2 domain binding assay (DiscoverX KINOMEscan). The settings on record: 11-point 3-fold dilution, duplicate.
Procedure: The assay is performed by combining three components: DNA-tagged kinase; immobilized ligand; and a test compound. The ability of the test compound to compete with the immobilized ligand is measured via quantitative PCR of the DNA tag.
The liganded beads were blocked with excess biotin and washed with blocking buffer (SeaBlock (Pierce), 1% BSA, 0.05% Tween 20, 1 mM DTT) to remove unbound ligand and to reduce non-specific binding. […] Test compounds were prepared as 111× stocks in 100% DMSO. All test compounds were shipped to DiscoverX in DMSO with concentration of 10 mM. Kds were determined using an 11-point 3-fold compound dilution series with three DMSO control points. Each compound was tested in duplicate. […] The compounds were then diluted directly into the assays such that the final concentration of DMSO was 0.9%. All reactions performed in polypropylene 384-well plate. Each was a final volume of 0.02 ml. […] The kinase concentration in the eluates was measured by qPCR.
The amount of kinase measured by qPCR (Signal; y-axis) is plotted against the corresponding compound concentration in nM in log 10 scale (x-axis). Binding constants (Kds) were calculated with a standard dose-response curve using the Hill equation:
The Hill Slope was set to −1.
Curves were fitted using anon-linear least square fit with the Levenberg-Marquardt algorithm.
The subject of assay [3] is INFα induced pSTAT3 in human PBMC. As to the kind of experiment: INFα induced pSTAT3 in human PBMC. The following applies: read-out: p-STAT3 IC50. Format: cell-based. Here is the method:
Fresh Human PBMCs were resuspended in RPMI 1640 medium with 10% FBS. Cells were seeded in a round bottom 96-well plate at the concentration of 200,000 cells/well. A 10-point dilution series of test compound (top dose 10 uM, 1:5 dilution) was added to the well using the liquid dispenser (Tecan D300e) and incubated for 1 hour at 37 C. Then human INFα recombinant protein (R&D Systems) was added to the well at the final concentration of 5000 units/ml and incubated for 15 minutes at 37 C. Cell lysates were prepared and analyzed by Phospho STAT3 (Tyr705) cellular kit (Cisbio) or Phospho STAT5 (Tyr693) Kit (Meso Scale Discovery) following manufacturer's protocol.
For calculation of the inhibition rate, the relative pSTAT signal of each well=pSTAT signal of each well−the average pSTAT signal of baseline. The inhibition %=(the average pSTAT signal of INFα treatment wells−the relative of pSTAT signal in each compound containing well)/the average pSTAT signal of INFα treatment wells*100%
The curve was plotted as the inhibition % (y-axis) vs. compounds concentration (x-axis) and was fitted with log(inhibitor) vs. normalized response—Variable slope by GraphPad Prism7.0.

Assay [4] relates to INFα induced pSTAT5 in human PBMC. As to the kind of experiment: INFα induced pSTAT5 in human PBMC. Format: cell-based. The following applies: read-out: p-STAT5 IC50.

Sequence of TYK2 (JH2 domain) (P29597 589-875): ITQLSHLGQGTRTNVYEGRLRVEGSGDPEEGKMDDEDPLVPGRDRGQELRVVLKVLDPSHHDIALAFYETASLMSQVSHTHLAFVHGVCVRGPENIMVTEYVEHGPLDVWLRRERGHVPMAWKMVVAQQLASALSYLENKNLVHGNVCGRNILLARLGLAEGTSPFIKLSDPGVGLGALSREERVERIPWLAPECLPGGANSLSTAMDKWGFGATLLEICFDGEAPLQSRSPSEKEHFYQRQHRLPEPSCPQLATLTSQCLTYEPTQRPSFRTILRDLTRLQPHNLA

One may read the pIC50 as the negative decadic logarithm of the IC50, by convention in mol/L. In general, pKd refers to the negative decadic logarithm of the Kd, by convention in mol/L. Consider `[2H]C([2H])([2H])NC(=O)c1nnc(N2CCNC2=O)cc1Nc1cccc(-c2ncn(C)n2)c1OC` [Example 1, 4-[2-methoxy-3-(1-methyl-1,2,4-triazol-3-yl)anilino]-6-(2-oxoimidazolidin-1-yl)-N-(trideuteriomethyl)pyridazine-3-carboxamide], for which the pIC50 was greater than 7.00 in assay [1] (human PBMC, IL-12 10 ng/ml) and 6.00 to 7.00 in assay [3] (human PBMC, INFα 5000 units/ml). Besides, the pKd in assay [2] is no less than 9.00.

As for `[2H]C([2H])([2H])NC(=O)c1nnc(N2CCN(C)C2=O)cc1Nc1cccc(-c2ncn(C)n2)c1OC` [Example 2, 4-[2-methoxy-3-(1-methyl-1,2,4-triazol-3-yl)anilino]-6-(3-methyl-2-oxo-imidazolidin-1-yl)-N-(trideuteriomethyl)pyridazine-3-carboxamide], the pIC50 in assay [1] (human PBMC, IL-12 10 ng/ml) is greater than 7.00; in assay [3] (human PBMC, INFα 5000 units/ml), 6.00 to 7.00. The compound also showed a pKd in assay [2] of no less than 9.00.

As to `[2H]C([2H])([2H])NC(=O)c1nnc(N2CCC2=O)cc1Nc1cccc(-c2ncn(C)n2)c1OC` [Example 3, 4-[2-methoxy-3-(1-methyl-1,2,4-triazol-3-yl)anilino]-N-methyl-6-(2-oxoazetidin-1-yl) pyridazine-3-carboxamide], the pIC50 in assay [1] (human PBMC, IL-12 10 ng/ml) is 6.00 to 7.00; in assay [3] (human PBMC, INFα 5000 units/ml), 5.00 to 6.00. The pKd in assay [2] was 8.00 to 8.30.

For `[2H]C([2H])([2H])NC(=O)c1nnc(N2CCC3(CC3)C2=O)cc1Nc1cccc(-c2ncn(C)n2)c1OC` [Example 4, 4-[2-methoxy-3-(1-methyl-1,2,4-triazol-3-yl)anilino]-6-(4-oxo-5-azaspiro[2.4]heptan-5-yl)-N-(trideuteriomethyl)pyridazine-3-carboxamide], the pIC50 is greater than 7.00 in assay [1] (human PBMC, IL-12 10 ng/ml) and 6.00 to 7.00 in assay [3] (human PBMC, INFα 5000 units/ml). In assay [2], the pKd was no less than 9.00.

For `[2H]C([2H])([2H])NC(=O)c1nnc(N2CCN(C(C)C)C2=O)cc1Nc1cccc(-c2ncn(C)n2)c1OC` [Example 6, 6-(3-isopropyl-2-oxo-imidazolidin-1-yl)-4-[2-methoxy-3-(1-methyl-1,2,4-triazol-3-yl)anilino]-N-(trideuteriomethyl)pyridazine-3-carboxamide], the pIC50 in assay [1] (Homo sapiens, PBMC) is greater than 7.00; in assay [4] (human PBMC, INFα 5000 units/ml), greater than 7.00. The compound also showed a pKd in assay [2] of no less than 9.00.

For the compound `[2H]C([2H])([2H])NC(=O)c1nnc(N2CCC(C)(C)C2=O)cc1Nc1cccc(-c2ncn(C)n2)c1OC` [Example 7, 6-(3,3-dimethyl-2-oxo-pyrrolidin-1-yl)-4-[2-methoxy-3-(1-methyl-1,2,4-triazol-3-yl)anilino]-N-(trideuteriomethyl)pyridazine-3-carboxamide], the pIC50 in assay [1] (human PBMC, IL-12 10 ng/ml) is 6.00 to 7.00; in assay [3] (human PBMC, INFα 5000 units/ml), 6.00 to 7.00.

As for `[2H]C([2H])([2H])NC(=O)c1nnc(N2CCN(C3CC(F)(F)C3)C2=O)cc1Nc1cccc(-c2ncn(C)n2)c1OC` [Example 10, 6-[3-(3,3-difluorocyclobutyl)-2-oxo-imidazolidin-1-yl]-4-[2-methoxy-3-(1-methyl-1,2,4-triazol-3-yl)anilino]-N-(trideuteriomethyl)pyridazine-3-carboxamide], the pIC50 in assay [1] (human PBMC, IL-12 10 ng/ml) is greater than 7.00; in assay [4] (human PBMC, INFα 5000 units/ml) it was greater than 7.00. For the same compound, the pKd in assay [2] is no less than 9.00.

In the case of `[2H]C([2H])([2H])NC(=O)c1nnc(N2CCN(C3CCC3)C2=O)cc1Nc1cccc(-c2ncn(C)n2)c1OC` [Example 11, 6-(3-cyclobutyl-2-oxo-imidazolidin-1-yl)-4-[2-methoxy-3-(1-methyl-1,2,4-triazol-3-yl)anilino]-N-(trideuteriomethyl)pyridazine-3-carboxamide], the pIC50 in assay [1] (human PBMC, IL-12 10 ng/ml) was greater than 7.00; in assay [4] (human PBMC, INFα 5000 units/ml) it was greater than 7.00. The compound further had a pKd in assay [2] of no less than 9.00.

Turning to `[2H]C([2H])([2H])NC(=O)c1nnc(N2CCN(C(C([2H])([2H])[2H])C([2H])([2H])[2H])C2=O)cc1Nc1cccc(-c2ncn(C)n2)c1OC` [Example 13, 6-(3-isopropyl-2-oxo-imidazolidin-1-yl)-4-[2-methoxy-3-(1-methyl-1,2,4-triazol-3-yl)anilino]-N-(trideuteriomethyl)pyridazine-3-carboxamide], the pIC50 is greater than 7.00 in assay [1] (Homo sapiens, PBMC) and greater than 7.00 in assay [3] (Homo sapiens, PBMC).

As for `[2H]C([2H])([2H])NC(=O)c1nnc(N2CCN(C(C)C)C2=O)cc1Nc1cccc(-c2ncn(C)n2)c1OC([2H])([2H])[2H]` [Example 14, 6-(3-isopropyl-2-oxo-imidazolidin-1-yl)-4-[3-(1-methyl-1,2,4-triazol-3-yl)-2-(trideuteriomethoxy)anilino]-N-(trideuteriomethyl)pyridazine-3-carboxamide], the negative-log IC50 (pIC50) in assay [1] (human PBMC, IL-12 10 ng/ml) is greater than 7.00; in assay [4] (human PBMC, INFα 5000 units/ml) it was greater than 7.00. Further, the pKd in assay [2] was no less than 9.00.

With `[2H]C([2H])([2H])NC(=O)c1nnc(N2CCN(C(C)C)C2=O)cc1Nc1cccc(-c2ncn(C([2H])([2H])[2H])n2)c1OC` [Example 15, 6-(3-isopropyl-2-oxo-imidazolidin-1-yl)-4-[2-methoxy-3-[1-(trideuteriomethyl)-1,2,4-triazol-3-yl]anilino]-N-(trideuteriomethyl)pyridazine-3-carboxamide], the pIC50 is greater than 7.00 in assay [1] (human PBMC, IL-12 10 ng/ml) and greater than 7.00 in assay [4] (human PBMC, INFα 5000 units/ml). The compound further had a pKd in assay [2] of no less than 9.00.

Regarding `[2H]C([2H])([2H])NC(=O)c1nnc(N2CCN(C3(C)COC3)C2=O)cc1Nc1cccc(-c2ncn(C)n2)c1OC` [Example 16, 4-[2-methoxy-3-(1-methyl-1,2,4-triazol-3-yl)anilino]-6-[3-(3-methyloxetan-3-yl)-2-oxo-imidazolidin-1-yl]-N-(trideuteriomethyl)pyridazine-3-carboxamide], the pIC50 in assay [1] (human PBMC, IL-12 10 ng/ml) is greater than 7.00; in assay [4] (human PBMC, INFα 5000 units/ml) it was greater than 7.00. The compound also gave a pKd in assay [2] of no less than 9.00.

As to `COc1c(Nc2cc(NC(=O)C3CC3)ncc2C(=O)C2CC2)cccc1-c1ncn(C)n1` [Example 27], the pIC50 is greater than 7.00 in assay [1] (Homo sapiens, PBMC) and greater than 7.00 in assay [4] (Homo sapiens, PBMC).

With `COc1c(Nc2cc(Nc3ccccn3)ncc2C(=O)C2CC2)cccc1-c1ncn(C)n1` [Example 37], the pIC50 in assay [1] (human PBMC, IL-12 10 ng/ml) was greater than 7.00; in assay [4] (human PBMC, INFα 5000 units/ml), greater than 7.00. Besides, the pKd in assay [2] was no less than 9.00.

For `[2H]C([2H])([2H])NC(=O)c1nnc(NC(=O)N2CC(C)C2)cc1Nc1cccc(-c2ncn(C)n2)c1OC` [Example 49], the pIC50 in assay [1] (human PBMC, IL-12 10 ng/ml) is greater than 7.00; in assay [4] (human PBMC, INFα 5000 units/ml), greater than 7.00. Further, the pKd in assay [2] was no less than 9.00.

As for `COc1c(Nc2cc(NC(=O)C3CC3)ncc2C(=O)C2CC2)cccc1-c1nnn(C)n1` [Example 51], the negative-log IC50 (pIC50) is greater than 7.00 in assay [1] (human PBMC, IL-12 10 ng/ml) and greater than 7.00 in assay [4] (human PBMC, INFα 5000 units/ml). In assay [2], this compound showed a pKd of no less than 9.00.

On to `[2H]C([2H])([2H])n1cnc(-c2cccc(Nc3cc(NC(=O)C4CC4)ncc3C(=O)C3CC3)c2OC)n1` [Example 54], for which the pIC50 is greater than 7.00 in assay [1] (human PBMC, IL-12 10 ng/ml) and greater than 7.00 in assay [4] (human PBMC, INFα 5000 units/ml).

On to `[2H]C([2H])([2H])NC(=O)c1nnc(N2CCN(C3(C)CC3)C2=O)cc1Nc1cccc(-c2ncn(C)n2)c1OC` [Example 88], for which, in assay [1] (human PBMC, IL-12 10 ng/ml), the pIC50 is greater than 7.00. The compound further showed a pKd in assay [2] of no less than 9.00.

`[2H]C([2H])([2H])NC(=O)c1nnc(N2CCN(C(C)(C)C)C2=O)cc1Nc1cccc(-c2ncn(C)n2)c1OC` [Example 89]: the pIC50 in assay [1] (human PBMC, IL-12 10 ng/ml) was greater than 7.00; in assay [4] (human PBMC, INFα 5000 units/ml), greater than 7.00. In addition, the pKd in assay [2] is no less than 9.00.

Consider `[2H]C([2H])([2H])NC(=O)c1nnc(N2CCN(CCCC)C2=O)cc1Nc1cccc(-c2ncn(C)n2)c1OC` [Example 91], for which the pIC50 in assay [1] (human PBMC, IL-12 10 ng/ml) is greater than 7.00. Moreover, the pKd in assay [2] is no less than 9.00.

Regarding `[2H]C([2H])([2H])NC(=O)c1nnc(N2CCN(C3CCC(F)(F)CC3)C2=O)cc1Nc1cccc(-c2ncn(C)n2)c1OC` [Example 94], the pIC50 in assay [1] (human PBMC, IL-12 10 ng/ml) was greater than 7.00. The compound also gave a pKd in assay [2] of no less than 9.00.

Take `[2H]C([2H])([2H])NC(=O)c1nnc(N2CCN(C3(C#N)CC3)C2=O)cc1Nc1cccc(-c2ncn(C)n2)c1OC` [Example 95]: the pIC50 in assay [1] (human PBMC, IL-12 10 ng/ml) was greater than 7.00. The same compound showed a pKd in assay [2] of no less than 9.00.

Turning to `[2H]C([2H])([2H])NC(=O)c1nnc(N2CCN(CC3CCC3)C2=O)cc1Nc1cccc(-c2ncn(C)n2)c1OC` [Example 96], in assay [1] (human PBMC, IL-12 10 ng/ml), the pIC50 was greater than 7.00. Also, the pKd in assay [2] is no less than 9.00.

On to `[2H]C([2H])([2H])NC(=O)c1nnc(N2CCN(C3CCCOC3)C2=O)cc1Nc1cccc(-c2ncn(C)n2)c1OC` (centres unmarked) [Example 98], for which the pIC50 in assay [1] (human PBMC, IL-12 10 ng/ml) was greater than 7.00. The compound further showed a pKd in assay [2] of no less than 9.00.

Take `[2H]C([2H])([2H])NC(=O)c1nnc(N2CCN(CCC)C2=O)cc1Nc1cccc(-c2ncn(C)n2)c1OC` [Example 99]: the pIC50 in assay [1] (human PBMC, IL-12 10 ng/ml) is greater than 7.00. This compound also gave a pKd in assay [2] of no less than 9.00.

Turning to `[2H]C([2H])([2H])NC(=O)c1nnc(N2CCN(C3CC(C)C3)C2=O)cc1Nc1cccc(-c2ncn(C)n2)c1OC` (centres unmarked) [Example 100], the pIC50 in assay [1] (human PBMC, IL-12 10 ng/ml) was greater than 7.00. The compound further showed a pKd in assay [2] of no less than 9.00.

As for `[2H]C([2H])([2H])NC(=O)c1nnc(N2CCN(C(C([2H])([2H])[2H])C([2H])([2H])[2H])C2=O)cc1Nc1cccc(-c2ncn(C)n2)c1OC` [Example 103], the pIC50 in assay [1] (human PBMC, IL-12 10 ng/ml) was greater than 7.00. The compound further had a pKd in assay [2] of no less than 9.00.
